Tests used:
[1] = tested on: PSMA-positive PC-3 PIP cells; assay: Cell uptake and internalization; type: cell-based; details: 4 h incubation; % of total added activity
[2] = Radioligand integrity by thin-layer chromatography; type: physicochemical; details: over a period of 48 h
Experimental: The PSMA ligands used in this study were synthesized using solid-phase chemistry methods as previously reported. The labeling of the PSMA ligands with actinium-225 was performed at ITM Medical Isotopes GmbH, Munich, Germany (Supplementary Material: Section S1). The radioligands (~50 kBq/nmol; ~0.5 MBq/mL) were shipped to the Paul Scherrer Institute (PSI) overnight followed by assessing their integrity using thin-layer chromatography. […] Depending on the experiment, the molar activity of the radioligands was adjusted by adding unlabeled ligand and the final formulation was prepared by adding vehicle (saline with 0.05% bovine serum albumin (BSA)) to obtain the desired activity concentration. Radiolabeling of SibuDAB with lutetium-177 (5–10 MBq/nmol) was performed as previously reported.

[3] = tested on: PC3-PIP/flu tumor-bearing mice; assay: Biodistribution studies; type: in vivo, BALB/c nude mice

CC(C)Cc1ccc(C(C)C(=O)NC(CCN)C(=O)NCCCCC(NC(=O)CN2CCN(CC(=O)[O-])CCN(CC(=O)[O-])CCN(CC(=O)[O-])CC2)C(=O)NCC2CCC(C(=O)NC(Cc3ccc4ccccc4c3)C(=O)NCCCCC(NC(=O)NC(CCC(=O)O)C(=O)O)C(=O)O)CC2)cc1.[225Ac+3] (centres unmarked) [[^225Ac]Ac-SibuDAB]
Cell uptake [1]: 59 ± 1%
Internalization (internalized fraction) [1]: 25 ± 5%
intact radioligand [2]: > 99%
Blood, accumulated activity ([3]; 1 h p.i.): 23 ± 2 % IA/g
Bone, accumulated activity ([3]; 1 h p.i.): 2.5 ± 0.2 % IA/g
Heart, accumulated activity ([3]; 1 h p.i.): 7.4 ± 0.9 % IA/g
Intestines, accumulated activity ([3]; 1 h p.i.): 2.6 ± 0.5 % IA/g
Kidneys, accumulated activity ([3]; 1 h p.i.): 18 ± 1 % IA/g
Liver, accumulated activity ([3]; 1 h p.i.): 4.4 ± 0.4 % IA/g
Lung, accumulated activity ([3]; 1 h p.i.): 19 ± 2 % IA/g
Muscle, accumulated activity ([3]; 1 h p.i.): 2.0 ± 0.4 % IA/g
PC-3 PIP tumor, accumulated activity ([3]; 1 h p.i.): 20 ± 2 % IA/g
PC-3 flu tumor, accumulated activity ([3]; 1 h p.i.): 4.2 ± 1.1 % IA/g
Salivary glands, accumulated activity ([3]; 1 h p.i.): 4.7 ± 0.4 % IA/g
Spleen, accumulated activity ([3]; 1 h p.i.): 3.5 ± 0.3 % IA/g
Stomach, accumulated activity ([3]; 1 h p.i.): 2.4 ± 0.4 % IA/g
Tumor-to-blood ratio ([3]; 1 h p.i.): 0.9 ± 0.1
Tumor-to-kidney ratio ([3]; 1 h p.i.): 1.2 ± 0.1
Tumor-to-liver ratio ([3]; 1 h p.i.): 4.6 ± 0.5
Blood, accumulated activity ([3]; 4 h p.i.): 16 ± 2 % IA/g
Bone, accumulated activity ([3]; 4 h p.i.): 2.2 ± 0.5 % IA/g
Heart, accumulated activity ([3]; 4 h p.i.): 5.5 ± 0.7 % IA/g
Intestines, accumulated activity ([3]; 4 h p.i.): 2.2 ± 0.3 % IA/g
Kidneys, accumulated activity ([3]; 4 h p.i.): 19 ± 1 % IA/g
Liver, accumulated activity ([3]; 4 h p.i.): 4.0 ± 0.3 % IA/g
Lung, accumulated activity ([3]; 4 h p.i.): 10 ± 2 % IA/g
Muscle, accumulated activity ([3]; 4 h p.i.): 1.9 ± 0.2 % IA/g
PC-3 PIP tumor, accumulated activity ([3]; 4 h p.i.): 45 ± 5 % IA/g
PC-3 flu tumor, accumulated activity ([3]; 4 h p.i.): 4.1 ± 0.8 % IA/g
Salivary glands, accumulated activity ([3]; 4 h p.i.): 3.7 ± 0.2 % IA/g
Spleen, accumulated activity ([3]; 4 h p.i.): 3.0 ± 0.5 % IA/g
Stomach, accumulated activity ([3]; 4 h p.i.): 1.8 ± 0.3 % IA/g
Tumor-to-blood ratio ([3]; 4 h p.i.): 2.9 ± 0.3
Tumor-to-kidney ratio ([3]; 4 h p.i.): 2.3 ± 0.1
Tumor-to-liver ratio ([3]; 4 h p.i.): 11 ± 1
Blood, accumulated activity ([3]; 24 h p.i.): 3.3 ± 0.7 % IA/g
Bone, accumulated activity ([3]; 24 h p.i.): 0.81 ± 0.10 % IA/g
Heart, accumulated activity ([3]; 24 h p.i.): 1.5 ± 0.4 % IA/g
Intestines, accumulated activity ([3]; 24 h p.i.): 0.85 ± 0.14 % IA/g
Kidneys, accumulated activity ([3]; 24 h p.i.): 18 ± 2 % IA/g
Liver, accumulated activity ([3]; 24 h p.i.): 3.3 ± 0.4 % IA/g
Lung, accumulated activity ([3]; 24 h p.i.): 2.9 ± 0.4 % IA/g
Muscle, accumulated activity ([3]; 24 h p.i.): 0.58 ± 0.06 % IA/g
PC-3 PIP tumor, accumulated activity ([3]; 24 h p.i.): 80 ± 8 % IA/g
PC-3 flu tumor, accumulated activity ([3]; 24 h p.i.): 2.4 ± 0.9 % IA/g
Salivary glands, accumulated activity ([3]; 24 h p.i.): 1.7 ± 0.2 % IA/g
Spleen, accumulated activity ([3]; 24 h p.i.): 2.3 ± 0.5 % IA/g
Stomach, accumulated activity ([3]; 24 h p.i.): 0.72 ± 0.14 % IA/g
Tumor-to-blood ratio ([3]; 24 h p.i.): 25 ± 6
Tumor-to-kidney ratio ([3]; 24 h p.i.): 4.7 ± 0.9
Tumor-to-liver ratio ([3]; 24 h p.i.): 25 ± 5
Blood, accumulated activity ([3]; 48 h p.i.): 1.1 ± 0.2 % IA/g
Bone, accumulated activity ([3]; 48 h p.i.): 0.48 ± 0.09 % IA/g
Heart, accumulated activity ([3]; 48 h p.i.): 0.73 ± 0.17 % IA/g
Intestines, accumulated activity ([3]; 48 h p.i.): 0.40 ± 0.08 % IA/g
Kidneys, accumulated activity ([3]; 48 h p.i.): 8.6 ± 1.1 % IA/g
Liver, accumulated activity ([3]; 48 h p.i.): 2.7 ± 0.5 % IA/g
Lung, accumulated activity ([3]; 48 h p.i.): 1.3 ± 0.3 % IA/g
Muscle, accumulated activity ([3]; 48 h p.i.): 0.30 ± 0.11 % IA/g
PC-3 PIP tumor, accumulated activity ([3]; 48 h p.i.): 64 ± 11 % IA/g
PC-3 flu tumor, accumulated activity ([3]; 48 h p.i.): 1.5 ± 0.4 % IA/g
Salivary glands, accumulated activity ([3]; 48 h p.i.): 0.92 ± 0.19 % IA/g
Spleen, accumulated activity ([3]; 48 h p.i.): 1.9 ± 0.5 % IA/g
Stomach, accumulated activity ([3]; 48 h p.i.): 0.38 ± 0.04 % IA/g
Tumor-to-blood ratio ([3]; 48 h p.i.): 62 ± 11
Tumor-to-kidney ratio ([3]; 48 h p.i.): 7.4 ± 1.3
Tumor-to-liver ratio ([3]; 48 h p.i.): 24 ± 4
tumor uptake, higher than for [225Ac]Ac-PSMA-617 ([3]; 48 h p.i., PC-3 PIP tumor): 2 fold
